Results on twelve compounds are retold here after US12398154B2, “Azaquinazoline pan-KRas inhibitors” (Mirati Therapeutics, Inc., priority 2020, dated 2025).

The term IC50 denotes the concentration that inhibits the measured activity by half. A high value points to weaker potency.

The structures appear in SMILES notation. Bounds are passed on as bounds.

Experiment [1] has as its system phospho-ERK in A549 (G12S) cells. As to the kind of experiment: Inhibition of KRas-mediated phosphorylation of ERK (in-cell western). It is filed as cell-based. Conditions: Homo sapiens, 3 hours compound, phospho-ERK normalized to GAPDH. The essentials: (§1)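 IC50 came from 4-parameter dose-response fits of phospho-ERK (Thr202/Tyr204)/GAPDH signal, expressed as % DMSO control. Compounds were applied for 3 h at 0.5% DMSO before fixation, methanol permeabilization and antibody imaging by in-cell western.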

For experiment [2], the system named is phospho-ERK in AsPC-1 (G12D) cells. The experiment is described as above. In kind it is cell-based. The note with it: 3 hours compound, phospho-ERK normalized to GAPDH. The method in brief:
as §1

Experiment [3] concerns phospho-ERK in HCT116 (G13D) cells. The description is as above. In kind it is cell-based. Conditions: Homo sapiens, HCT-116, 3 hours compound, phospho-ERK normalized to GAPDH. The essentials:
as §1

Experiment [4] concerns phospho-ERK in MKN1 (WTdep) cells. Described as above. In kind it is cell-based. Conditions: Homo sapiens, MKN-1, 3 hours compound, phospho-ERK normalized to GAPDH. The essentials:
as §1

In experiment [5] the test system is phospho-ERK in NCI-H358 (G12C) cells. The description is as above. It is filed as cell-based. Conditions: Homo sapiens, 3 hours compound, phospho-ERK normalized to GAPDH. The essentials: as §1
Experiment [6] concerns phospho-ERK in NCI-H460 (Q61H) cells. The description is as above. It is filed as cell-based. Conditions: 3 hours compound, phospho-ERK normalized to GAPDH. The method in brief: as §1
Experiment [7] has as its system phospho-ERK in NCI-H727 (G12V) cells. The description is as above. In kind it is cell-based. The note with it: 3 hours compound, phospho-ERK normalized to GAPDH. The essentials: as §1
In experiment [8] the test system is phospho-ERK in PSN-1 (G12R) cells. Described as above. In kind it is cell-based. Conditions: Homo sapiens, PSN1, 3 hours compound, phospho-ERK normalized to GAPDH. The essentials:
as §1

The target in another experiment is KRas G12D (Homo sapiens, UniProt P01116, G12D). As to the kind of experiment: biochemical.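 Also: TR-FRET displacement binding assay on KRas, read after a one-hour incubation at room temperature, IC50 fitted from percent-of-control values.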
A further experiment deals with KRas G12V (Homo sapiens, UniProt P01116, G12V). As to the kind of experiment: biochemical.
The target of another experiment is KRas G12R (Homo sapiens, UniProt P01116, G12R). As to the kind of experiment: biochemical.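 Also: TR-FRET displacement assay of compound binding to KRas, read after one hour at room temperature, potency from a four-parameter fit of percent-of-control values.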
A further experiment concerns the target T1, KRas G13D (Homo sapiens, UniProt P01116, G13D).
T1 construct: Biotinylated KRas (corresponding to amino acids 1-169, produced at Accelegan Inc.); biotin (biotinylated); purchased Accelegan Inc
As to the kind of experiment: KRas binding assay (TR-FRET displacement). For orientation: TR-FRET usually uses a lanthanide donor and a delayed reading to cut background.

The next experiment has as its target T2, KRas Q61H (Homo sapiens, UniProt P01116, Q61H).
T2 construct: Biotinylated KRas (corresponding to amino acids 1-169, produced at Accelegan Inc.); biotin (biotinylated); purchased Accelegan Inc
As to the kind of experiment: KRas binding assay (TR-FRET displacement).

The target of another experiment is KRas G12A (Homo sapiens, UniProt P01116, G12A). As to the kind of experiment: biochemical.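 Also: binding to KRas measured by TR-FRET displacement after one hour at room temperature, IC50 from a four-parameter fit of percent-of-control values.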
A further experiment deals with KRas G12S (Homo sapiens, UniProt P01116, G12S). As to the kind of experiment: biochemical.
A further experiment addresses KRas G12C (Homo sapiens, UniProt P01116, G12C). As to the kind of experiment: biochemical.
The next experiment addresses KRas WT (Homo sapiens, UniProt P01116). As to the kind of experiment: biochemical.

KRas G12D, sequence (P01116 1-169 isoform P01116-2 G12D): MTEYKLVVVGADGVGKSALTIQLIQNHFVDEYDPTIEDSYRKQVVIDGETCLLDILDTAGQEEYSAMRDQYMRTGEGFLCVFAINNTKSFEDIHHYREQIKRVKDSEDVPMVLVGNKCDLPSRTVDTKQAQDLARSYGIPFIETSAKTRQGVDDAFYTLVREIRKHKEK
KRas G12R, sequence (P01116 1-169 isoform P01116-2 G12R): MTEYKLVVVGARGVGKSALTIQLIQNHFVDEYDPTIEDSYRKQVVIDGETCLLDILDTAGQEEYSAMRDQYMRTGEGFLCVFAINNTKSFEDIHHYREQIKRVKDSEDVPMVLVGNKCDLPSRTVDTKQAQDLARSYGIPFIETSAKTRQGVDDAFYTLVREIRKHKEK
KRas G12V, sequence (P01116 1-169 isoform P01116-2 G12V): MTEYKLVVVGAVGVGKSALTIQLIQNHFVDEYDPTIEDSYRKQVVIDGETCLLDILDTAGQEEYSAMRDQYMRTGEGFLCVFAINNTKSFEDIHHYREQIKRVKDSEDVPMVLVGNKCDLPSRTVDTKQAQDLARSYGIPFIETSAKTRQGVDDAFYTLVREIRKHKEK
KRas G12A, sequence (P01116 1-169 isoform P01116-2 G12A): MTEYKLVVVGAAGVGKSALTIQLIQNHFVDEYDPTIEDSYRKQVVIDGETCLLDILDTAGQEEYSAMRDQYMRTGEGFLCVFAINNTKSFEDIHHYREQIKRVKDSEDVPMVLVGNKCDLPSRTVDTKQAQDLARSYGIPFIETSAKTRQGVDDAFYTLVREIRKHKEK
KRas WT, sequence (P01116 1-169 isoform P01116-2): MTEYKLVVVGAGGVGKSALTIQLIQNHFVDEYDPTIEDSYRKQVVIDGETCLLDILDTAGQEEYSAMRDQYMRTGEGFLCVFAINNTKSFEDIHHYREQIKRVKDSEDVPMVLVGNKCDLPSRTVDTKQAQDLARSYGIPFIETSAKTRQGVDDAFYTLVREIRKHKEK
KRas G12S, sequence (P01116 1-169 isoform P01116-2 G12S): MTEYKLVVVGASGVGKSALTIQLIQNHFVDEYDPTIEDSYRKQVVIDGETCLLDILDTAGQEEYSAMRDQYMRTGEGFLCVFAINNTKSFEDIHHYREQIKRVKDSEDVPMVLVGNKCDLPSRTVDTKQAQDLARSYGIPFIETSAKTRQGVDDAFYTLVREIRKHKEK
T1 sequence (P01116 1-169 isoform P01116-2 G13D): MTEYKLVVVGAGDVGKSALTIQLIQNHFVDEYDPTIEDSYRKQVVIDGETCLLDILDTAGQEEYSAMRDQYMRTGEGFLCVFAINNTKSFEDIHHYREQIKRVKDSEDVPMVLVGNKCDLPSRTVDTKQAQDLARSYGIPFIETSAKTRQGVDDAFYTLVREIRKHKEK
KRas G12C, sequence (P01116 1-169 isoform P01116-2 G12C): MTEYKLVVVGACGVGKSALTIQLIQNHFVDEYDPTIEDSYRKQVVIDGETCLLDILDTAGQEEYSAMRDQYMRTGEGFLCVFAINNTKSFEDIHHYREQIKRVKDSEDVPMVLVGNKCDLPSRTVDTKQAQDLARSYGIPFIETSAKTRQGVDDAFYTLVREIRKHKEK
T2 sequence (P01116 1-169 isoform P01116-2 Q61H): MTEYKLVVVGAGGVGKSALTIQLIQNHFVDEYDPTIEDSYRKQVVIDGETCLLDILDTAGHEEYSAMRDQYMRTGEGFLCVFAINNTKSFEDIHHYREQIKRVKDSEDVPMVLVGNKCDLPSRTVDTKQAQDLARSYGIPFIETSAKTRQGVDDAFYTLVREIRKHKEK

Turning to `CCc1c(F)ccc2cc(O)cc(-c3ncc4c(NCc5c[nH]c6ncccc56)nc(OC[C@@]56CCCN5C[C@H](F)C6)nc4c3F)c12` [62.], the IC50 in experiment [1] came to 87 nM; in experiment [2] (Homo sapiens, ASPC1, 3 h) it was 591 nM; in [3], 410 nM; in experiment [4], 7 nM; in experiment [5], 24 nM; in experiment [6] (Homo sapiens, NCI-H460, 3 h), 154 nM. The IC50 in experiment [7] (Homo sapiens, NCI-H727, 3 h) is 178 nM; in [8] it was ≥ 10000 nM.

As for `C#Cc1c(F)ccc2cccc(-c3ncc4c(N5CCCC6(CNC(=O)C6)C5)nc(OC[C@@]56CCCN5C[C@H](F)C6)nc4c3F)c12` (stereo partly drawn) [Example 36, 7-(7-(8-ethynyl-7-fluoronaphthalen-1-yl)-8-fluoro-2-(((2R,7aS)-2-fluorohexahydro-1H-pyrrolizin-7a-yl)methoxy)pyrido[4,3-d]pyrimidin-4-yl)-2,7-diazaspiro[4.5]decan-3-one], the IC50 in [1] is 2150 nM; in [2] (Homo sapiens, ASPC1, 3 h), 1540 nM; in [3], 1610 nM; in experiment [4], 1180 nM; in experiment [5], 1130 nM; in experiment [6] (Homo sapiens, NCI-H460, 3 h) it was 557 nM. In addition, the IC50 in [7] (Homo sapiens, NCI-H727, 3 h) is 3390 nM; in experiment [8] it was ≥ 10000 nM; on KRas G12D, 9 nM; against KRas G12V, 20 nM; on KRas G12R, 24 nM.

In the case of `CCc1c(F)ccc2cc(O)cc(-c3ncc4c(N5CCCC6(CNC(=O)C6)C5)nc(OC[C@@]56CCCN5C[C@H](F)C6)nc4c3F)c12` (stereo partly drawn) [Example 38], the IC50 in experiment [1] was found to be 3270 nM; in experiment [2] (Homo sapiens, ASPC1, 3 h), 966 nM; in experiment [3] it was 814 nM; in experiment [4], 143 nM; in [5] it was 324 nM; in experiment [6] (Homo sapiens, NCI-H460, 3 h), 573 nM. Besides, the 50% inhibitory concentration (IC50) in [7] (Homo sapiens, NCI-H727, 3 h) was 1190 nM; in experiment [8], 7620 nM; against KRas G12D it was ≤ 2 nM; against KRas G12V, ≤ 2 nM; on KRas G12R it was ≤ 2 nM.

On to `CCc1c(F)ccc2cc(O)cc(-c3ncc4c(N5C[C@H](O)C[C@@H](O)C5)nc(OC[C@@]56CCCN5C[C@H](F)C6)nc4c3F)c12` [Example 59], for which the IC50 in experiment [1] was determined as 3560 nM; in experiment [2] it was 577 nM; in experiment [3], 1270 nM; in [4], 107 nM; in experiment [5], 176 nM; in [6], 296 nM. Further, the IC50 in [7] was 769 nM; in experiment [8], ≥ 10000 nM; at KRas G12D, ≤ 2 nM; on KRas G12V, ≤ 2 nM; at KRas G12R it was ≤ 2 nM.

Regarding `CCc1c(F)ccc2cc(O)cc(-c3ncc4c(NCC5CNC(=O)C5)nc(OC[C@@]56CCCN5C[C@H](F)C6)nc4c3F)c12` (stereo partly drawn) [Example 60], the IC50 in experiment [1] turned out to be 5530 nM; in [2] (Homo sapiens, ASPC1, 3 h), 3890 nM; in [3], 3600 nM; in experiment [4] it was 230 nM; in experiment [5], 389 nM; in [6] (Homo sapiens, NCI-H460, 3 h) it was 1030 nM. Further, the IC50 in [7] (Homo sapiens, NCI-H727, 3 h) is 1260 nM; in experiment [8] it was ≥ 10000 nM; against KRas G12D it was ≤ 2 nM; against KRas G12V, ≤ 2 nM; at KRas G12R, ≤ 2 nM.

Consider `CCc1c(F)ccc2cc(O)cc(-c3ncc4c(N5CCC6(CC5)CC(=O)N6)nc(OC[C@@]56CCCN5C[C@H](F)C6)nc4c3F)c12` [Example 73], for which the IC50 in [1] worked out at 191 nM; in experiment [2] (Homo sapiens, ASPC1, 3 h) it was 3490 nM; in experiment [3], 128 nM; in [4], 23 nM; in experiment [5], 98 nM; in [6] (Homo sapiens, NCI-H460, 3 h), 176 nM. In addition, the IC50 is 756 nM in experiment [7] (Homo sapiens, NCI-H727, 3 h); ≥ 10000 nM in experiment [8]; 5 nM against KRas G12D; ≤ 2 nM against KRas G12V; ≤ 2 nM at KRas G12R.

Take `CCc1c(F)ccc2cc(O)cc(-c3ncc4c(N5CC(n6ccnc6)C5)nc(OC[C@@]56CCCN5C[C@H](F)C6)nc4c3F)c12` [Example 134, 4-(4-(3-(1H-imidazol-1-yl)azetidin-1-yl)-8-fluoro-2-(((2R,7aS)-2-fluorohexahydro-1H-pyrrolizin-7a-yl)methoxy)pyrido[4,3-d]pyrimidin-7-yl)-5-ethyl-6-fluoronaphthalen-2-ol]: the IC50 in [1] is 1490 nM; in [2] (Homo sapiens, ASPC1, 3 h), ≥ 10000 nM; in experiment [3], ≥ 10000 nM; in experiment [4] it was 178 nM; in experiment [5], 48 nM; in experiment [6] (Homo sapiens, NCI-H460, 3 h), 666 nM. The 50% inhibitory concentration (IC50) in experiment [7] (Homo sapiens, NCI-H727, 3 h) is ≥ 10000 nM; in [8] it was ≥ 10000 nM.

Take `CCc1c(F)ccc2cc(O)cc(-c3ncc4c(NCCCc5cc[nH]n5)nc(OC[C@@]56CCCN5C[C@H](F)C6)nc4c3F)c12` [Example 135, 4-(4-((3-(1H-pyrazol-3-yl)propyl)amino)-8-fluoro-2-(((2R,7aS)-2-fluorohexahydro-1H-pyrrolizin-7a-yl)methoxy)pyrido[4,3-d]pyrimidin-7-yl)-5-ethyl-6-fluoronaphthalen-2-ol]: the IC50 is 2460 nM in experiment [1]; 2060 nM in [2] (Homo sapiens, ASPC1, 3 h); 3270 nM in [3]; 53 nM in experiment [4]; 37 nM in experiment [5]; 647 nM in experiment [6] (Homo sapiens, NCI-H460, 3 h). In addition, the IC50 in experiment [7] (Homo sapiens, NCI-H727, 3 h) was ≥ 10000 nM; in [8], ≥ 10000 nM; against KRas G12D, 31 nM; on KRas G12V, 3 nM; against KRas G12R, 3 nM.

Take `Oc1cc(-c2ncc3c(N4CCCC(c5ncn[nH]5)C4)nc(OCC45CCCN4CCC5)nc3c2F)c2c(F)c(F)ccc2c1` (stereo not drawn) [Example 137, 4-(4-(3-(1H-1,2,4-triazol-5-yl)piperidin-1-yl)-8-fluoro-2-((hexahydro-1H-pyrrolizin-7a-yl)methoxy)pyrido[4,3-d]pyrimidin-7-yl)-5,6-difluoronaphthalen-2-ol]: the IC50 in [1] was ≥ 10000 nM; in [2] (Homo sapiens, ASPC1, 3 h) it was ≥ 10000 nM; in [3] it was ≥ 10000 nM; in experiment [4] it was ≥ 10000 nM; in [5] it was 2040 nM; in [6] (Homo sapiens, NCI-H460, 3 h), ≥ 10000 nM. In addition, the IC50 was ≥ 10000 nM in experiment [7] (Homo sapiens, NCI-H727, 3 h); ≥ 10000 nM in experiment [8]; ≤ 2 nM at KRas G12D; ≤ 2 nM on KRas G12V; 3 nM against KRas G12R.

For the compound `C[C@@]1(O)CCCN(c2nc(OC[C@@]34CCCN3C[C@H](F)C4)nc3c(F)c(-c4c5ccccc5cc5[nH]ncc45)ncc23)C1` [Example 154, (3R)-1-(7-(1H-benzo[f]indazol-4-yl)-8-fluoro-2-(((2R,7aS)-2-fluorohexahydro-1H-pyrrolizin-7a-yl)methoxy)pyrido[4,3-d]pyrimidin-4-yl)-3-methylpiperidin-3-ol], the IC50 is 34 nM on KRas G13D; 53 nM at KRas Q61H; 8450 nM in experiment [1]; 1460 nM in experiment [3]; 840 nM in [5]; ≥ 10000 nM in experiment [7] (Homo sapiens, NCI-H727, 3 h). The IC50 is ≥ 10000 nM in [8]; 33 nM on KRas G12D; 28 nM at KRas G12V; 66 nM on KRas G12R; 42 nM on KRas G12A; 43 nM on KRas G12S. Also, the IC50 on KRas G12C worked out at 43 nM; on KRas WT it was 54 nM.

Turning to `CCc1c(F)ccc2cc(O)cc(-c3ncc4c(Nc5ccc6cnn(C)c6c5)nc(OC[C@@]56CCCN5C[C@H](F)C6)nc4c3F)c12` [Example 174, 5-ethyl-6-fluoro-4-(8-fluoro-2-(((2R,7aS)-2-fluorohexahydro-1H-pyrrolizin-7a-yl)methoxy)-4-((1-methyl-1H-indazol-6-yl)amino)pyrido[4,3-d]pyrimidin-7-yl)naphthalen-2-ol], the IC50 was 4950 nM in [1]; ≥ 10000 nM in [3]; 1290 nM in experiment [5]; ≥ 10000 nM in experiment [7] (Homo sapiens, NCI-H727, 3 h); ≥ 10000 nM in experiment [8]; 89 nM against KRas G12D. In addition, the values for the IC50 against KRas G12V and against KRas G12R were 4 nM and 13 nM, respectively.

In the case of `CCc1c(F)ccc2cc(O)cc(-c3ncc4c(NCC5CS(=O)(=O)C5)nc(OC[C@@]56CCCN5C[C@H](F)C6)nc4c3F)c12` [Example 177], the IC50 in experiment [1] is 764 nM; in experiment [3] it was 1700 nM; in [5] it was 54 nM; in experiment [7] (Homo sapiens, NCI-H727, 3 h) it was ≥ 10000 nM; in experiment [8], ≥ 10000 nM; on KRas G12D, 3 nM. For the same compound, the IC50 against KRas G12V and at KRas G12R was ≤ 2 nM in each case.
